Measurements published in US20260007634A1, “PHARMACEUTICAL COMPOSITIONS FOR THE TREATMENT OF ALLERGIC DISEASES” (KINKI UNIVERSITY, priority 2022, published 2026).

Legend:
IL-6 [1] = assay: LPS-stimulated IL-6 secretion in B cells (ELISA); format: cell-based, mouse; settings: 10 μM compound, 10 μg/mL LPS 2 days, control 9.46, LPS 246.13
Method: Mouse B cells were used to examine the inhibition of compounds on IL-6 secretion in LPS stimulation.
Mouse B cells were cultured in RPMI 1640 medium for 1 day. Then, 10 μM mangiferin 8a and 10 μM norathyriol were added to B cells, and after 1 day of culture, 10 μg/mL of LPS was added to each, followed by 2 days of culture.
Thus, the samples were divided into “control” with no treatment, “10 μg/mL LPS+10 μM mangiferin 8a” to which 10 μg/mL LPS and 10 μM mangiferin 8a were added, and “10 μg/mL LPS+10 μM norathyriol” to which 10 μg/mL LPS and 10 μM norathyriol were added and only 10 μg/mL LPS was added (“10 μg/L LPS”).
After these samples were incubated for 2 days, the culture supernatant was collected and IL-6 secretion was measured by enzyme-linked immunosorbent assay (ELISA). The mouse IL-6 ELISA kit (R&D) was used for this measurement.

Th17 cells = assay: Th17 cell activation in inflammation-induced mouse model (IL-17A flow cytometry); format: in vivo; settings: DBA/1J mice, Freund's complete adjuvant + bovine type2 collagen; oral 10 mg/kg daily 20 days; thymus cells; vs vehicle group
Method: (§1) Equal volume mixtures of Freund's complete adjuvant and Bovine type2 collagen were administered to 6-week-old male DBA/1J mice (Japan SLC Inc.) at 0.1 mL (day 0 of the study). 21 days later, DBA/1J mice were again injected with 0.1 mL of the above mixture for secondary immunization. After the second immunization, mice were orally treated with 10 mg/kg of mangiferin 8a and 10 mg/kg of norathyriol daily for 20 days. 20 days later, thymus glands were harvested from mice and stained with anti-CD4 and anti-IL-17A antibodies, which are Th17 cell markers, and expression of IL-17A (CD4 positive) was measured using BD LSRFortessa.

IL-6 [2] = assay: LPS-stimulated IL-6 secretion in macrophages (ELISA); format: cell-based, mouse; settings: 10 μM compound, 10 μg/mL LPS 2 days, control 13.13, LPS 321.13
Method: Mouse macrophages were used to examine the inhibition of compounds on IL-6 secretion in LPS stimulation.
Mouse macrophages were cultured in RPMI 1640 medium for 1 day. Then, 10 μM mangiferin 8a and 10 μM norathyriol were added to macrophages, and after 1 day of culture, 10 μg/mL of LPS was added to each, followed by 2 days of culture. After these samples were incubated for 2 days, the culture supernatant was collected and IL-6 secretion was measured by enzyme-linked immunosorbent assay (ELISA). The mouse IL-6 ELISA kit (R&D) was used for this measurement.

Th2 cells = assay: Th2 cell activation in inflammation-induced mouse model (IL-4 flow cytometry); format: in vivo; settings: DBA/1J mice, Freund's complete adjuvant + bovine type2 collagen; oral 10 mg/kg daily 20 days; thymus cells; vs vehicle group
Method: as §1, with “anti-IL-4” for “anti-IL-17A”, “Th2” for “Th17”, “IL-4” for “IL-17A”

[3] = test system: Balb/c mice with atopic dermatitis (MC903 applied to the auricle); assay: Auricular swelling in MC903-induced atopic dermatitis mice; format: in vivo, mouse
Method: MC903 at 2 nM was applied to the right auricle of a 6-week-old male Balb/c (Japan SLC Inc.). Starting 8 h later, 5% norathyriol aqueous solution (1 mL of ethanol containing […] of norathyriol), betamethasone ointment, and delgocitinib ointment were applied to the auricle for 7 days. The measurement of auricular skin swelling was calculated by calipers. The day on which the first application of the compound was made was defined as day 0. Betamethasone and delgocitinib are currently in clinical use in atopic dermatitis and were used as control drugs in this example.
Those without MC903 or norathyriol are called the control group, those with MC903 are called the vehicle group, those with 5% norathyriol aqueous are called the 5% norathyriol-applied group, those with betamethasone ointment are called the betamethasone-applied group, and those with delgocitinib ointment is referred to as the delgocitinib-applied group.
Solid white circles indicate the control group (labeled “control”). Solid black squares indicate the vehicle group (labeled “vehicle”), dotted black diamonds indicate the 5% norathyriol aqueous application group (labeled “MC903+5% norathyriol”), dashed black crosses indicate the betamethasone application group (labeled “MC903+betamethasone ointment”), and single-dotted black dots indicate the delgocitinib application group (labeled “MC903+delgocitinib ointment”).

[4] = test system: B cells collected from mice; assay: BAFF-induced differentiation into plasma cells (CD138 flow cytometry); format: cell-based, mouse; settings: 100 ng/mL BAFF, 10 days; 100 μM mangiferin, 20 μM 1,3,5,6-tetrahydroxyxanthone, 10 μM others; vs BAFF-added group
Method: B cells collected from mice were cultured in RPMI 1640 medium for 1 day. Then, 100 μM mangiferin, 10 μM mangiferin 8a, 10 μM norathyriol, 20 μM 1,3,5,6-tetrahydroxyxanthone, 10 μM xanthohydrol, 10 μM α-mangostin, 10 μM of γ-mangostin were added to B cell, and after 1 day of culture, 100 ng/mL of BAFF was added, followed by 10 days of culture. After 10 days of culture, cells were stained with anti-CD138 antibody, a marker of plasma cells, and CD138 expression was measured using BD LSRFortessa.
In all figures, the horizontal axis represents the expression level of CD138 and the vertical axis represents the number of cells.

mouse macrophages = assay: LPS-stimulated macrophage proliferation (trypan blue); format: cell-based; settings: 10 μM compound, 10 μg/mL LPS 3 days, control 10.65×10^4, LPS 19×10^4
Method: The inhibitory effect of the compound on macrophage cell proliferation was examined using mouse macrophages.
Macrophages collected from mice were cultured in RPMI 1640 medium for 1 day. Then, 10 μM mangiferin 8a and 10 μM norathyriol were added to macrophages, and after 1 day of culture, 10 μg/mL of lipopolysaccharide (LPS) was added to each for 3 days. After 3 days of incubation, the number of viable cells was determined by the trypan blue dye method. Note that LPS was used as an allergic inflammation inducer.
Referring to FIG. 49, the horizontal axis indicates treatment with each compound and the vertical axis indicates cell count (1×10^4 cells/mL). Only 0.5% DMSO in PBS, which was used to dissolve the reagent (compound), was added as control. The LPS group is referred to as the LPS group with 10 μg/mL LPS, the mangiferin 8a group is referred to as the mangiferin 8a group with LPS and mangiferin 8a, and the norathyriol group is referred to as the norathyriol group with LPS and norathyriol.

O=c1c2cc(O)c(O)cc2oc2cc(O)cc(O)c12 [norathyriol, 1,3,6,7-tetrahydroxyxanthone]
IL-6 secretion (IL-6 [1]): 56.13 pg/mL | IL-17A expression (CD4 positive) (Th17 cells): markedly reduced | IL-6 secretion (IL-6 [2]): 64.13 pg/mL | IL-4 expression (CD4 positive) (Th2 cells): markedly reduced | auricular skin swelling ([3]; male Balb/c, MC903 on right auricle, 5% norathyriol aqueous solution, betamethasone ointment or delgocitinib ointment applied to auricle for 7 days, vs vehicle group): swelling was significantly reduced | swelling and redness of auricular skin (photograph) ([3]; right auricle at day 7, topical 5% norathyriol aqueous, betamethasone ointment, delgocitinib ointment): showed some redness, but not as much as in the target group | CD138 expression [4]: significantly decreased CD138 expression | number of viable cells (cell count) (mouse macrophages): 7.5×10^4 cells/mL
